Three compounds from US11225505B2, “Antimicrobial polymyxin derivative compounds” (MONASH UNIVERSITY, priority 2015, dated 2022) can be followed below.

Common to all, as to type: cell-based
The subject of assay [1] is Acinetobacter baumannii FADDI-AB030. Description: microbe, parasite or virus in culture. The settings on record: FADDI-AB030. A digest of the protocol:
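Lipopeptide TFA salts tested against the multidrug-resistant clinical isolate by CLSI (M100-S24) broth microdilution in cation-adjusted Mueller-Hinton broth, with polymyxin B sulphate as control; MIC read.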

The test system of assay [2] is Acinetobacter baumannii ATCC 17978. The following applies: ATCC 17978. An outline of the steps:
(§1)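 In cation-adjusted Mueller-Hinton broth, each lipopeptide (TFA salt) was titrated against the bacteria by microdilution and the minimum inhibitory concentration recorded per CLSI M100-S24; polymyxin B sulphate ran in parallel.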

In assay [3] the test system is Klebsiella pneumoniae FADDI-KP032. The following applies: FADDI-KP032. An outline of the steps: as §1
Assay [4] concerns Klebsiella pneumoniae FADDI-KP022. The following applies: FADDI-KP022. A digest of the protocol:
as §1

Assay [5] concerns Pseudomonas aeruginosa FADDI-PA022. The settings on record: FADDI-PA022. A digest of the protocol:
as §1

Assay [6] relates to Klebsiella pneumoniae Kp BM1. The settings on record: Kp BM1. An outline of the steps: (§2)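 Susceptibility of polymyxin-susceptible Gram-negative strains, including multidrug-resistant clinical isolates PA022 and AB034, was tested by broth microdilution. Cation-adjusted Mueller-Hinton broth and the CLSI M100-S24 method were used.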
In assay [7] the test system is Pseudomonas aeruginosa ATCC 27853. The following applies: ATCC 27853. An outline of the steps:
as §1

In assay [8] the test system is Pseudomonas aeruginosa FADDI-PA038. The settings on record: FADDI-PA038. A digest of the protocol: as §1
Assay [9] deals with Enterobacter cloacae FADDI-EC006. The settings on record: FADDI-EC006. A digest of the protocol:
as §1

In assay [10] the test system is Enterobacter cloacae FADDI-EC001. The following applies: FADDI-EC001. An outline of the steps:
as §2

Assay [11] has as its system Acinetobacter baumannii FADDI-AB034. The settings on record: FADDI-AB034. A digest of the protocol: as §1
Assay [12] relates to Enterobacter cloacae FADDI-EC003. The following applies: FADDI-EC003. A digest of the protocol:
as §1

Assay [13] concerns Pseudomonas aeruginosa FADDI-PA01. The settings on record: FADDI-. An outline of the steps: as §1

The structures appear in SMILES notation. Converted amounts (≈) assume the structure as drawn. Where a SMILES comes first, the peptide text is derived from it. Bridges are numbered along the chain shown (N, C = ends). [ ]: non-standard residue; d: D form. The star is where a group is joined. Benzothiophen(2-yl)carbonyl = O=C(c1cc2ccccc2s1)*; X22 = Cn1c(C(=O)*)cc2ccccc21; X5 = Cc1ccc2nc(C(=O)*)cn2c1; Dab = NCC[C@H](N)C(=O)O; Abu = CC[C@H](N)C(=O)O; Dap = NC[C@H](N)C(=O)O

In the case of `CC[C@@H]1NC(=O)[C@@H](CC(C)C)NC(=O)[C@H](CCN)NC(=O)[C@@H](NC(=O)[C@H](CN)NC(=O)[C@@H](NC(=O)[C@H](CCN)NC(=O)c2cc3ccccc3n2C)[C@@H](C)O)CCNC(=O)[C@H]([C@@H](C)O)NC(=O)[C@H](CCN)NC(=O)[C@H](CCN)NC1=O` [Compound 48] (X22-[Dab]T[Dap][Dab][Dab][dL][Abu][Dab][Dab]T; lactam 4-C), the Minimum inhibitory concentration in [1] is less than 0.125 µg/mL; in assay [2], less than 0.125 µg/mL; in assay [3] it was less than 0.125 µg/mL; in [4] it was less than 0.125 µg/mL; in assay [5], 0.25 µg/mL (≈ 0.218 µM); in [6] it was less than 0.125 µg/mL. The Minimum inhibitory concentration in assay [7] is 0.25 µg/mL (≈ 0.218 µM); in assay [8], less than 0.125 µg/mL; in assay [9], 0.25 µg/mL (≈ 0.218 µM); in assay [10] it was less than 0.125 µg/mL; in [11], 0.25 µg/mL (≈ 0.218 µM); in assay [12], 0.25 µg/mL (≈ 0.218 µM). In addition, the Minimum inhibitory concentration in [13] was less than 0.125 µg/mL.
With `CC[C@@H]1NC(=O)[C@@H](CC(C)C)NC(=O)[C@H](CCN)NC(=O)[C@@H](NC(=O)[C@H](CN)NC(=O)[C@@H](NC(=O)[C@H](CCN)NC(=O)c2cn3cc(C)ccc3n2)[C@@H](C)O)CCNC(=O)[C@H]([C@@H](C)O)NC(=O)[C@H](CCN)NC(=O)[C@H](CCN)NC1=O` [Compound 49] (X5-[Dab]T[Dap][Dab][Dab][dL][Abu][Dab][Dab]T; lactam 4-C), the Minimum inhibitory concentration in [1] was 1 µg/mL (≈ 0.873 µM); in [2], 2 µg/mL (≈ 1.75 µM); in [3] it was less than 0.125 µg/mL; in assay [4] it was less than 0.125 µg/mL; in [5] it was 0.5 µg/mL (≈ 0.437 µM); in [6], 0.25 µg/mL (≈ 0.218 µM). Further, the Minimum inhibitory concentration in assay [7] is 0.25 µg/mL (≈ 0.218 µM); in assay [8], 0.5 µg/mL (≈ 0.437 µM); in assay [9], 1 µg/mL (≈ 0.873 µM); in assay [10] it was less than 0.125 µg/mL; in [11], 4 µg/mL (≈ 3.49 µM); in [12], less than 0.125 µg/mL. The compound also showed a Minimum inhibitory concentration in [13] of 0.25 µg/mL (≈ 0.218 µM).
As for `CC[C@@H]1NC(=O)[C@@H](CC(C)C)NC(=O)[C@H](CCN)NC(=O)[C@@H](NC(=O)[C@H](CN)NC(=O)[C@@H](NC(=O)[C@H](CCN)NC(=O)c2cc3ccccc3s2)[C@@H](C)O)CCNC(=O)[C@H]([C@@H](C)O)NC(=O)[C@H](CCN)NC(=O)[C@H](CCN)NC1=O` [Compound 50] ({Benzothiophen(2-yl)carbonyl}-[Dab]T[Dap][Dab][Dab][dL][Abu][Dab][Dab]T; lactam 4-C), the Minimum inhibitory concentration in [1] was 0.5 µg/mL (≈ 0.436 µM); in assay [2], less than 0.125 µg/mL; in [3], 0.25 µg/mL (≈ 0.218 µM); in assay [4] it was less than 0.125 µg/mL; in assay [5], 0.25 µg/mL (≈ 0.218 µM); in assay [6], 0.5 µg/mL (≈ 0.436 µM). The Minimum inhibitory concentration was 0.5 µg/mL (≈ 0.436 µM) in [7]; 0.25 µg/mL (≈ 0.218 µM) in assay [8]; 0.5 µg/mL (≈ 0.436 µM) in [9]; 0.25 µg/mL (≈ 0.218 µM) in [10]; less than 0.125 µg/mL in [11]; 0.5 µg/mL (≈ 0.436 µM) in assay [12]. In assay [13], this compound registered a Minimum inhibitory concentration of less than 0.125 µg/mL.
